Measurements: patent US11051515B2, “3-acyl-benzamides and their use as herbicides” (Bayer Aktiengesellschaft, priority 2017, dated 2021)

Columns and labels:
[1] = tested on: ALOMY; experiment: Pre-emergence action against ALOMY; format: in vivo, Alopecurus myosuroides; conditions: dosage 320 g/ha, pre-emergence, scored visually after 3 weeks vs untreated controls, 100% = plants have died, 0% = like control plants
In short: (§1)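 Seeds sown in sandy loam in wood-fiber pots and covered with soil. Greenhouse growth; visual damage scored after 3 weeks versus untreated controls (100% = dead, 0% = like control).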

[2] = tested on: STEME; experiment: Post-emergence action against STEME; format: in vivo, Stellaria media; conditions: post-emergence, dosage 80 g/ha
In short: (§2)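 Weeds grown in sandy loam in greenhouse, treated at one-leaf stage (2–3 weeks after sowing) with WP or EC formulations sprayed as aqueous suspension/emulsion at 600 to […] water with 0.2% wetting agent. Visual rating after about 3 weeks versus untreated controls, as % herbicidal action (100% = plants dead, 0% = like control).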

[3] = tested on: VERPE; experiment: Post-emergence action against VERPE; format: in vivo, Veronica persica; conditions: dosage 80 g/ha
In short: as §2

[4] = tested on: ABUTH; experiment: Post-emergence action against ABUTH; format: in vivo, Abutilon theophrasti; conditions: post-emergence, dosage 80 g/ha, visual assessment about 3 weeks after treatment vs untreated controls
In short: as §2

[5] = tested on: ABUTH; experiment: Pre-emergence action against ABUTH; format: in vivo, Abutilon theophrasti; conditions: pre-emergence, dosage 320 g/ha, scored visually after 3 weeks vs untreated controls
In short: as §1

[6] = tested on: SETVI; experiment: Post-emergence action against SETVI; format: in vivo, Setaria viridis; conditions: post-emergence, dosage 80 g/ha, visual assessment about 3 weeks after treatment vs untreated controls
In short: as §2

[7] = tested on: AVEFA; experiment: Post-emergence action against AVEFA; format: in vivo, Avena fatua; conditions: post-emergence, dosage 80 g/ha, visual assessment about 3 weeks after treatment vs untreated controls
Procedure: (§3) Seeds of monocotyledonous and dicotyledonous weed and crop plants are laid out in sandy loam soil in wood-fiber pots, covered with soil and cultivated in a greenhouse under good growth conditions. 2 to 3 weeks after sowing, the test plants are treated at the one-leaf stage. The compounds of the invention, formulated in the form of wettable powders (WP) or as emulsion concentrates (EC), are then sprayed onto the green parts of the plants in the form of an aqueous suspension or emulsion at a water application rate equating to […], with addition of 0.2% wetting agent. After the test plants have been left to stand in the greenhouse under optimal growth conditions for about 3 weeks, the action of the preparations is assessed visually in comparison to untreated controls (herbicidal action in percent (%): 100% activity=the plants have died, 0% activity=like control plants). […] At the same time, inventive compounds leave Gramineae crops such as barley, wheat, rye, millet/Sorghum, corn or rice virtually undamaged when applied post-emergence, even at high active ingredient dosages. In addition, some substances are also harmless to dicotyledonous crops such as soya, cotton, oilseed rape, sugar beet or potatoes. Some of the compounds according to the invention have high selectivity and are therefore suitable for controlling unwanted vegetation in agricultural crops by the post-emergence method. The data of Tables B18 to B34 below illustrate, in an exemplary manner, the […] herbicidal action of the compounds according to the invention, the herbicidal activity being stated in percent.

[8] = tested on: POLCO; experiment: Pre-emergence action against POLCO; format: in vivo, Polygonum convolvulus; conditions: Dosage 320 g/ha, pre-emergence
In short: as §1

[9] = tested on: MATIN; experiment: Post-emergence action against MATIN; format: in vivo, Matricaria inodora; conditions: post-emergence, dosage 80 g/ha, visual assessment about 3 weeks after treatment vs untreated controls
In short: as §2

[10] = tested on: AMARE; experiment: Pre-emergence action against AMARE; format: in vivo, Amaranthus retroflexus; conditions: pre-emergence, dosage 320 g/ha, scored visually after 3 weeks vs untreated controls
In short: as §1

[11] = tested on: STEME; experiment: Pre-emergence action against STEME; format: in vivo, Stellaria media; conditions: Dosage 320 g/ha, pre-emergence
In short: as §1

[12] = tested on: PHBPU; experiment: Post-emergence action against PHBPU; format: in vivo, Pharbitis purpurea; conditions: post-emergence, dosage 80 g/ha
In short: as §2

[13] = tested on: VIOTR; experiment: Post-emergence action against VIOTR; format: in vivo, Viola tricolor; conditions: post-emergence, dosage 80 g/ha
In short: as §2

[14] = tested on: MATIN; experiment: Pre-emergence action against MATIN; format: in vivo, Matricaria inodora; conditions: Dosage 320 g/ha, pre-emergence
In short: as §1

[15] = tested on: VERPE; experiment: Pre-emergence action against VERPE; format: in vivo, Veronica persica; conditions: Dosage 320 g/ha, pre-emergence
In short: as §1

[16] = tested on: SETVI; experiment: Pre-emergence action against SETVI; format: in vivo, Setaria viridis; conditions: pre-emergence, dosage 320 g/ha, scored visually after 3 weeks vs untreated controls
In short: as §1

[17] = tested on: CYPES; experiment: Post-emergence action against CYPES; format: in vivo, Cyperus esculentus; conditions: post-emergence, dosage 80 g/ha, visual assessment about 3 weeks after treatment vs untreated controls
In short: as §2

[18] = tested on: ALOMY; experiment: Post-emergence action against ALOMY; format: in vivo, Alopecurus myosuroides; conditions: Dosage 80 g/ha, post-emergence
Procedure: as §3

[19] = tested on: VIOTR; experiment: Pre-emergence action against VIOTR; format: in vivo, Viola tricolor; conditions: Dosage 320 g/ha, pre-emergence
In short: as §1

[20] = tested on: ECHCG; experiment: Post-emergence action against ECHCG; format: in vivo, Echinochloa crus-galli; conditions: post-emergence, dosage 80 g/ha, visual assessment about 3 weeks after treatment vs untreated controls
In short: as §2

[21] = tested on: AVEFA; experiment: Pre-emergence action against AVEFA; format: in vivo, Avena fatua; conditions: dosage 320 g/ha, scored visually after 3 weeks vs untreated controls
In short: as §1

[22] = tested on: AMARE; experiment: Post-emergence action against AMARE; format: in vivo, Amaranthus retroflexus; conditions: post-emergence, dosage 80 g/ha, visual assessment about 3 weeks after treatment vs untreated controls
In short: as §2

[23] = tested on: ECHCG; experiment: Pre-emergence action against ECHCG; format: in vivo, Echinochloa crus-galli; conditions: pre-emergence, dosage 320 g/ha, scored visually after 3 weeks vs untreated controls
In short: as §1

[24] = tested on: CYPES; experiment: Pre-emergence action against CYPES; format: in vivo, Cyperus esculentus; conditions: pre-emergence, dosage 320 g/ha, scored visually after 3 weeks vs untreated controls
In short: as §1

[25] = tested on: PHBPU; experiment: Pre-emergence action against PHBPU; format: in vivo, Pharbitis purpurea; conditions: Dosage 320 g/ha, pre-emergence
In short: as §1

Structure (SMILES): CCCn1nnnc1NC(=O)c1ccc(C(F)(F)F)c(C(=O)C2CC2)c1Cl [3-141]
- Pre-emergence action against ALOMY (herbicidal activity in percent) [1]: 90%
- Post-emergence action against STEME [2]: 100
- Post-emergence action against VERPE [3]: 100
- Post-emergence action against ABUTH (herbicidal action in percent) [4]: 80%
- Pre-emergence action against ABUTH (herbicidal activity) [5]: 100%
- Post-emergence action against SETVI (herbicidal action in percent) [6]: 100%
- Post-emergence action against AVEFA (herbicidal action in percent) [7]: 100%
- Pre-emergence action against POLCO [8]: 90%
- Post-emergence action against MATIN (herbicidal action in percent) [9]: 100%
- Pre-emergence action against AMARE (herbicidal activity) [10]: 100%
- Pre-emergence action against STEME [11]: 100%
- Post-emergence action against PHBPU [12]: 100
- Post-emergence action against VIOTR [13]: 100
- Pre-emergence action against MATIN [14]: 100%
- Pre-emergence action against VERPE [15]: 100%
- SETVI (Table B8, pre-emergence herbicidal activity) [16]: 100%
- Post-emergence action against CYPES (herbicidal action in percent) [17]: 80%
- Post-emergence action against ALOMY [18]: 80%
- Pre-emergence action against VIOTR [19]: 100%
- Post-emergence action against ECHCG (herbicidal action in percent) [20]: 100%
- Pre-emergence action against AVEFA (herbicidal activity) [21]: 80%
- Post-emergence action against AMARE (herbicidal action in percent) [22]: 100%
- Pre-emergence action against ECHCG (herbicidal activity) [23]: 100%

Structure (SMILES): CSc1ccc(C(=O)Nc2nnnn2C)c(Cl)c1C(=O)C1CC1 [1-123]
- pest or weed control at 320 g/ha ([1]; Alopecurus myosuroides, 504 h, read-out: Pre-emergence action against ALOMY (herbicidal activity in percent)): 90%
- pest or weed control at 80 g/ha ([2]; Stellaria media, 504 h): 100%
- pest or weed control at 80 g/ha ([3]; Veronica persica, 504 h): 100%
- pest or weed control at 80 g/ha ([4]; Abutilon theophrasti, 504 h, read-out: Post-emergence action against ABUTH (herbicidal action in percent)): 100%
- pest or weed control at 320 g/ha ([5]; Abutilon theophrasti, 504 h, read-out: Pre-emergence action against ABUTH (herbicidal activity)): 90%
- pest or weed control at 80 g/ha ([6]; Setaria viridis, 504 h, read-out: Post-emergence action against SETVI (herbicidal action in percent)): 100%
- pest or weed control at 80 g/ha ([7]; Avena fatua, 504 h, read-out: Post-emergence action against AVEFA (herbicidal action in percent)): 100%
- pest or weed control at 80 g/ha ([9]; Tripleurospermum inodorum, 504 h, read-out: Post-emergence action against MATIN (herbicidal action in percent)): 100%
- pest or weed control at 320 g/ha ([10]; Amaranthus retroflexus, 504 h, read-out: Pre-emergence action against AMARE (herbicidal activity)): 100%
- pest or weed control at 320 g/ha ([11]; Stellaria media, 504 h): 90%
- pest or weed control at 80 g/ha ([12]; Ipomoea purpurea, 504 h): 90%
- pest or weed control at 80 g/ha ([13]; Viola tricolor, 504 h): 100%
- pest or weed control at 320 g/ha ([14]; Tripleurospermum inodorum, 504 h): 100%
- pest or weed control at 320 g/ha ([15]; Veronica persica, 504 h): 100%
- pest or weed control at 320 g/ha ([16]; Setaria viridis, 504 h, read-out: SETVI (Table B8, pre-emergence herbicidal activity)): 100%
- pest or weed control at 80 g/ha ([18]; Alopecurus myosuroides, 504 h): 80%
- pest or weed control at 320 g/ha ([19]; Viola tricolor, 504 h): 100%
- pest or weed control at 80 g/ha ([20]; Echinochloa crus-galli, 504 h, read-out: Post-emergence action against ECHCG (herbicidal action in percent)): 100%
- pest or weed control at 320 g/ha ([21]; Avena fatua, 504 h, read-out: Pre-emergence action against AVEFA (herbicidal activity)): 80%
- pest or weed control at 80 g/ha ([22]; Amaranthus retroflexus, 504 h, read-out: Post-emergence action against AMARE (herbicidal action in percent)): 100%
- pest or weed control at 320 g/ha ([23]; Echinochloa crus-galli, 504 h, read-out: Pre-emergence action against ECHCG (herbicidal activity)): 100%

Structure (SMILES): CCCn1nnnc1NC(=O)c1ccc(S(C)(=O)=O)c(C(=O)C2CC2)c1Cl [3-129]
- Pre-emergence action against ALOMY (herbicidal activity in percent) [1]: 90%
- Post-emergence action against STEME [2]: 100
- Post-emergence action against VERPE [3]: 100
- Pre-emergence action against CYPES (herbicidal activity) [24]: 90%
- Pre-emergence action against PHBPU [25]: 90%
- Post-emergence action against ABUTH (herbicidal action in percent) [4]: 90%
- Pre-emergence action against ABUTH (herbicidal activity) [5]: 100%
- Post-emergence action against SETVI (herbicidal action in percent) [6]: 100%
- Post-emergence action against AVEFA (herbicidal action in percent) [7]: 90%
- Post-emergence action against MATIN (herbicidal action in percent) [9]: 100%
- Pre-emergence action against AMARE (herbicidal activity) [10]: 100%
- Pre-emergence action against STEME [11]: 100%
- Post-emergence action against PHBPU [12]: 100
- Post-emergence action against VIOTR [13]: 100
- Pre-emergence action against MATIN [14]: 100%
- Pre-emergence action against VERPE [15]: 100%
- SETVI (Table B8, pre-emergence herbicidal activity) [16]: 100%
- Post-emergence action against CYPES (herbicidal action in percent) [17]: 80%
- Post-emergence action against ALOMY [18]: 90%
- Pre-emergence action against VIOTR [19]: 100%
- Post-emergence action against ECHCG (herbicidal action in percent) [20]: 100%
- Pre-emergence action against AVEFA (herbicidal activity) [21]: 100%
- Post-emergence action against AMARE (herbicidal action in percent) [22]: 90%
- Pre-emergence action against ECHCG (herbicidal activity) [23]: 100%
